What all share (type): cell-based, human
Experiment [1] has as its system DDIT3 promoter (−1507C). As to the kind of experiment: Luciferase reporter activity in SK-N-MC cells stably transfected with pXP2 DDIT3(−1507C)-Luciferase (C1 cell line). The settings on record: −1507C construct, stable SK-N-MC cells, 15 hours of treatment; ± standard error of the mean. On the procedure:
(§1) The cell lysate was assayed for the β-galactosidase activity, as an indicator of the transfection efficiency, and luciferase activity, as an indicator of the transcriptional activity of the promoters: • Assay of β-galactosidase activity. 50 μl of cell lysate are incubated in an E.L.I.S.A. plate with 50 μl of enzyme substrate (2 mM MgCl2—Merck—, 100 mM β-mercaptoethanol—Sigma—, 120 mM Na2HPO4, 80 mM NaH2PO4—both from Carlo Erba—and 1.33 mg/ml of ONPG (2-Nitrophenyl-β-D-galactopyranoside)—Sigma—). This reaction generates a colored product the concentration of which is measured as absorbance at 415 nm in an E.L.I.S.A. plate reader (Model 680, from BioRad). • Assay of luciferase activity. 40 μl of cell lysate are measured adding 100 μl of reagent of the enzyme (20 mM Tricin, […], 33.3 mM DTT, 270 μM Coenzyme A —all from Sigma—, 2.67 mM MgSO4, 0.1 mM EDTA—both from Merck—, 470 μM Luciferin potassium salt —Promega—and 530 μM ATP—Boehringer Mannheim—); alternatively, the one of the Luciferase Assay System kit—Promega—was used. The luminescence emission is recorded in a Monolight 2010 illuminometer (Analytical Luminescence Laboratory). […]
(§2) The clones resistant to the antibiotic are isolated by aspiration with an automatic pipette and seeded in an M24 for the expansion thereof. The expression of luciferase is analyzed and the lines having greater luciferase activity are maintained. […]
In general terms: Reporter assays use an easily measured gene product as a stand-in for the process of interest.

The test system of experiment [2] is DDIT3 promoter. Nature of the experiment: Luciferase reporter activity in SK-N-MC cells transiently transfected with pXP2-DDIT3 constructs. The settings on record: transient transfection, both allelic variants; alteration seen after 6 hours of treatment. On the procedure: On the day before the transfection 2×10^5 cells per well are seeded in a 24-well plate (M24, from Falcon). 0.7 μg of DNA per well are transfected mixing the plasmids pXP2-DDIT3 and pSV-β-galactosidase in a 1:1 ratio (0.35 μg of pXP2 and 0.35 μg of β-gal) with Lipofectamine Plus (from Life Technologies), following the manufacturer's indications, in a 1:3 DNA:Lipofectamine ratio and allowing the cells to incubate with the plasmid for 5 hours. Twenty-four hours after the transfection the cells are treated to see the response to the stimulus. […]
as §1, with “50 μl of cell lysate are incubated in an E.L.I.S.A. plate with 50 μl of enzyme substrate (2 mM MgCl2—Merck—, 100 mM β-mercaptoethanol—Sigma—, 120 mM Na2HPO4, 80 mM NaH2PO4—both from Carlo Erba—and 1.33 mg/ml of ONPG (2-Nitrophenyl-β-D-galactopyranoside)—Sigma—).” left out, “used.” for “used. The luminescence emission is recorded in a Monolight 2010 illuminometer (Analytical Luminescence Laboratory).”

In experiment [3] the test system is DDIT3 promoter (−1507G). Nature of the experiment: Luciferase reporter activity in SK-N-MC cells stably transfected with pXP2 DDIT3(−1507G)-Luciferase (G7 cell line). The settings on record: −1507G construct, stable SK-N-MC cells, 15 hours of treatment; ± standard error of the mean. On the procedure:
as §1, §2

For Tunicamycin [ERS], the figures for the “Luciferase activity with respect to the non-treated cells (activation of the DDIT3 promoter)” value in experiment [1] and in experiment [3] were 4.6 ± 0.4 times and 3.4 ± 0.3 times, respectively. Further, in experiment [2], the “Transcriptional activity of the DDIT3 promoter after treatment” value is listed as “increases significantly”.

For the origin of these results see US20100304384A1, “METHOD OF IDENTIFYING COMPOUNDS THAT INDUCE OR INHIBIT ENDOPLASMIC RETICULUM STRESS OR OXIDATIVE STRESS” (UNIVERSIDAD AUTONOMA DE MADRID, priority 2007, published 2010).
